From US20110166112A1, “METHOD FOR STIMULATING PLATELET PRODUCTION” (Eisai, Inc., priority 2009, published 2011)

Test system: subjects with chronic ITP
Experiment: Combined 28-day and 6-month rollover studies of E5501: safety (TEAEs, serious TEAEs, thromboembolic events, neoplasms, liver toxicity, discontinuations)
Type: in vivo, human
Description: Primary Endpoint: The primary endpoint was to assess the safety and tolerability to E5501, including AEs and clinical laboratory parameters, over the 6 additional months of treatment.
In this way, safety data reflect each subject's complete duration of exposure to E5501 starting with lead-in the previous study and continuing into the current study.
Following Protocol Amendment 4, the current study contained a flexible dose regimen; therefore, this study was considered to have an open-label, uncontrolled, single-arm design. […] This was the method used to assess safety. • Grouping method B was based on both treatment received and day 28 platelet response to study drug in Study the previous study. This was the method used for the analysis of efficacy for the FAS and the SE population.
Overall Adverse Events. […] The primary focus is on summary statistics for the entire safety population and provides an overall safety profile for E5501. The summary statistics for each group, e.g., lower ⅓, middle ⅓ and upper ⅓ average daily dose levels, is secondary and provides further safety information across the 3 dose levels.

[1] = Lower ⅓ dose (2.5-<8.85 mg), N=22

SMILES: O=C(Nc1nc(-c2cc(Cl)cs2)c(N2CCN(C3CCCCC3)CC2)s1)c1cnc(N2CCC(C(=O)O)CC2)c(Cl)c1 [E5501, 1-(3-chloro-5-{[4-(4-chlorothiophen-2-yl)-5-(4-cyclohexylpiperazin-1-yl)thiazol-2-yl]carbamoyl}pyridine-2-yl)piperidine-4-carboxylic acid]
- tolerability and safety profile (6-month treatment period): well tolerated and demonstrated a favorable safety profile
- Any Serious TEAE, n (%) of subjects (E5501 Total, N=64): 5 (7.8) n (%)
- Serious TEAE Cerebrovascular accident, n (%) of subjects (E5501 Total, N=64): 1 (1.6) n (%)
- Serious TEAE Chest pain, n (%) of subjects (E5501 Total, N=64): 1 (1.6) n (%)
- Serious TEAE Diarrhoea, n (%) of subjects (E5501 Total, N=64): 1 (1.6) n (%)
- Serious TEAE Haemorrhage intracranial, n (%) of subjects (E5501 Total, N=64): 1 (1.6) n (%)
- Serious TEAE Lethargy, n (%) of subjects (E5501 Total, N=64): 1 (1.6) n (%)
- Serious TEAE Mitral valve incompetence, n (%) of subjects (E5501 Total, N=64): 1 (1.6) n (%)
- Serious TEAE Myocardial infarction, n (%) of subjects (E5501 Total, N=64): 1 (1.6) n (%)
- Serious TEAE Nausea, n (%) of subjects (E5501 Total, N=64): 1 (1.6) n (%)
- Serious TEAE Pelvic venous thrombosis, n (%) of subjects (E5501 Total, N=64): 1 (1.6) n (%)
- Serious TEAE Platelet count decreased, n (%) of subjects (E5501 Total, N=64): 1 (1.6) n (%)
- Serious TEAE Pneumonia, n (%) of subjects (E5501 Total, N=64): 1 (1.6) n (%)
- Serious TEAE Pyrexia, n (%) of subjects (E5501 Total, N=64): 1 (1.6) n (%)
- Serious TEAE Thrombocytopenia, n (%) of subjects (E5501 Total, N=64): 1 (1.6) n (%)
- Serious TEAE Transient ischaemic attack, n (%) of subjects (E5501 Total, N=64): 1 (1.6) n (%)
- Serious TEAE Vomiting, n (%) of subjects (E5501 Total, N=64): 2 (3.1) n (%)
- Serious TEAE, SOC Blood and lymphatic system disorders, n (%) of subjects (E5501 Total, N=64): 1 (1.6) n (%)
- Serious TEAE, SOC Cardiac disorders, n (%) of subjects (E5501 Total, N=64): 2 (3.1) n (%)
- Serious TEAE, SOC Gastrointestinal disorders, n (%) of subjects (E5501 Total, N=64): 2 (3.1) n (%)
- Serious TEAE, SOC General disorders and administration site conditions, n (%) of subjects (E5501 Total, N=64): 1 (1.6) n (%)
- Serious TEAE, SOC Infections and infestations, n (%) of subjects (E5501 Total, N=64): 1 (1.6) n (%)
- Serious TEAE, SOC Investigations, n (%) of subjects (E5501 Total, N=64): 1 (1.6) n (%)
- Serious TEAE, SOC Nervous system disorders, n (%) of subjects (E5501 Total, N=64): 3 (4.7) n (%)
- Serious TEAE, SOC Vascular disorders, n (%) of subjects (E5501 Total, N=64): 1 (1.6) n (%)
- Discontinued 501-CL-004, PC increase to ≧500,000/mm^3 (Full Analysis Set, Responders in previous study): 0 n
- Abdominal pain upper, n of subjects [1]: 0
- Any Serious TEAE, n (%) of subjects [1]: 1 (4.5) n (%)
- Any TEAE, % of subjects [1]: (90.9) %
- Any TEAE, n of subjects [1]: 20
- Arthralgia, % of subjects [1]: (4.5) %
- Arthralgia, n of subjects [1]: 1
- Asthenia, % of subjects [1]: (13.6) %
- Asthenia, n of subjects [1]: 3
- Back pain, % of subjects [1]: (4.5) %
- Back pain, n of subjects [1]: 1
- Constipation, n of subjects [1]: 0
- Contusion, % of subjects [1]: (13.6) %
- Contusion, n of subjects [1]: 3
- Cough, % of subjects [1]: (4.5) %
- Cough, n of subjects [1]: 1
- Deaths, n of subjects [1]: 0
- Diarrhoea, % of subjects [1]: (13.6) %
- Diarrhoea, n of subjects [1]: 3
- Dizziness, % of subjects [1]: (4.5) %
- Dizziness, n of subjects [1]: 1
- Dose interruption due to TEAE, % of subjects [1]: (13.6) %
- Dose interruption due to TEAE, n of subjects [1]: 3
- Dyspnoea, % of subjects [1]: (9.1) %
- Dyspnoea, n of subjects [1]: 2
- Ecchymosis, n of subjects [1]: 0
- Epistaxis, % of subjects [1]: (18.2) %
- Epistaxis, n of subjects [1]: 4
- Fatigue, % of subjects [1]: (36.4) %
- Fatigue, n of subjects [1]: 8
- Gingival bleeding, % of subjects [1]: (4.5) %
- Gingival bleeding, n of subjects [1]: 1
- Headache, % of subjects [1]: (18.2) %
- Headache, n of subjects [1]: 4
- Insomnia, % of subjects [1]: (4.5) %
- Insomnia, n of subjects [1]: 1
- Migraine, n of subjects [1]: 0
- Mouth haemorrhage, n of subjects [1]: 0
- Nausea, n of subjects [1]: 0
- Pain in extremity, % of subjects [1]: (9.1) %
- Pain in extremity, n of subjects [1]: 2
- Petechiae, % of subjects [1]: (13.6) %
- Petechiae, n of subjects [1]: 3
- Platelet count increased, % of subjects [1]: (9.1) %
- Platelet count increased, n of subjects [1]: 2
- Serious TEAE Cerebrovascular accident, n (%) of subjects [1]: 0 n (%)
- Serious TEAE Chest pain, n (%) of subjects [1]: 0 n (%)
- Serious TEAE Diarrhoea, n (%) of subjects [1]: 0 n (%)
- Serious TEAE Haemorrhage intracranial, n (%) of subjects [1]: 0 n (%)
- Serious TEAE Lethargy, n (%) of subjects [1]: 0 n (%)
- Serious TEAE Mitral valve incompetence, n (%) of subjects [1]: 0 n (%)
- Serious TEAE Myocardial infarction, n (%) of subjects [1]: 0 n (%)
- Serious TEAE Nausea, n (%) of subjects [1]: 0 n (%)
- Serious TEAE Pelvic venous thrombosis, n (%) of subjects [1]: 0 n (%)
- Serious TEAE Platelet count decreased, n (%) of subjects [1]: 0 n (%)
- Serious TEAE Pneumonia, n (%) of subjects [1]: 0 n (%)
- Serious TEAE Pyrexia, n (%) of subjects [1]: 0 n (%)
- Serious TEAE Thrombocytopenia, n (%) of subjects [1]: 1 (4.5) n (%)
- Serious TEAE Transient ischaemic attack, n (%) of subjects [1]: 0 n (%)
- Serious TEAE Vomiting, n (%) of subjects [1]: 0 n (%)
- Serious TEAE, % of subjects [1]: (4.5) %
- Serious TEAE, SOC Blood and lymphatic system disorders, n (%) of subjects [1]: 1 (4.5) n (%)
- Serious TEAE, SOC Cardiac disorders, n (%) of subjects [1]: 0 n (%)
- Serious TEAE, SOC Gastrointestinal disorders, n (%) of subjects [1]: 0 n (%)
- Serious TEAE, SOC General disorders and administration site conditions, n (%) of subjects [1]: 0 n (%)
- Serious TEAE, SOC Infections and infestations, n (%) of subjects [1]: 0 n (%)
- Serious TEAE, SOC Investigations, n (%) of subjects [1]: 0 n (%)
- Serious TEAE, SOC Nervous system disorders, n (%) of subjects [1]: 0 n (%)
- Serious TEAE, SOC Vascular disorders, n (%) of subjects [1]: 0 n (%)
